Reference: patent US20200010910A1, “Cytotoxic Chemotherapy-Based Predictive Assays for Acute Myeloid Leukemia” (The Regents of The University of California, priority 2017, published 2020)

Tests used:
H1975 = assay: MTT assay IC50; type: cell-based, human
Procedure: (§1) Six non-small cell lung cancer (NSCLC) cell lines were treated in culture with [^14C]carboplatin. Carboplatin-DNA monoadduct levels over time were determined by measuring ^14C content in genomic DNA with accelerator mass spectrometry (AMS). Cellular sensitivity to carboplatin and cisplatin was analyzed by the MTT assay (Henderson et al., International Journal of Cancer 2011).
(§2) Human NSCLC cell lines H23, H460, H727, HCC827, H1975, and A549 were purchased from ATCC and were cultured with the recommended medium. The MTT assay was performed as previously reported to determine the drug concentration required to inhibit cell growth by 50% (IC50) of cisplatin and carboplatin. [^14C]Carboplatin (at 53 mCi/mmol) was mixed with unlabeled carboplatin to achieve the specific activities required for microdoses and therapeutic doses. Table 1 lists the six NSCLC cell lines and summarizes their IC50 characteristics, induced carboplatin-DNA monoadducts when treated with [^14C]carboplatin, and p and r^2 values for correlation analysis to the IC50 concentrations.

H23 = assay: MTT assay IC50; type: cell-based, human
Procedure: as §1, §2

H460 = assay: MTT assay IC50; type: cell-based, human
Procedure: as §1, §2

H727 = assay: MTT assay IC50; type: cell-based, human
Procedure: as §1, §2

HCC827 = assay: MTT assay IC50; type: cell-based, human
Procedure: as §1, §2

HT1197 = assay: MTT assay IC50, bladder cancer cell line; type: cell-based
From the text: (§3) If these diadducts are the predominant DNA lesion responsible for cell death, then the IC50 of the two drugs should be linearly related. Thus, we measured the IC50 of the six NSCLC cell lines from Example 2 to both cisplatin and carboplatin to determine if the sensitivity of these six NSCLC cell lines to the two drugs are correlated. We observed a statistically significant linear correlation of the cytotoxicity of these two drugs in the 6 cell lines used in this study (R^2=0.72, p=0.033, FIG. 9A) and also to six additional ATCC bladder cancer cell lines. (R^2=0.72, p=0.033), FIG. 9B).

J82 = assay: MTT assay IC50, bladder cancer cell line; type: cell-based
From the text: as §3

RT4 = assay: MTT assay IC50, bladder cancer cell line; type: cell-based
From the text: as §3

T24 = assay: MTT assay IC50, bladder cancer cell line; type: cell-based
From the text: as §3

TCCSUP = assay: MTT assay IC50, bladder cancer cell line; type: cell-based
From the text: as §3

5637R = assay: MTT assay IC50, oxaliplatin-resistant bladder cancer sub-line; type: cell-based, human; settings: 5637R, 72 hours
Procedure: Drug-DNA adduct formation and repair was measured by accelerator mass spectrometry.
To confirm that 5637 was the original ATCC cell line, and that 5637R originated from the parental 5637 cell line, both cultures were sent to the ATCC Cell Line Authentication Service for cell verification per the ATCC protocol. More specifically, fifteen short tandem repeat (STR) loci plus the gender determining locus, amelogenin, were amplified using the commercially available PowerPlex® 16HS Kit from Promega.
These two cell lines were also cultured with a range of concentrations of cisplatin, carboplatin, gemcitabine, doxorubicin, methotrexate and vinblastine for 72 hours to determine IC50 for these other drugs (FIG. 16C). These drugs were chosen because of their frequent use in the treatment of bladder cancer.

PDX Model BL0269 [1] = assay: PDX tumor growth under chemotherapy; type: in vivo, NSG mice; settings: cisplatin 2 mg/kg IV Q7Dx3, gemcitabine 150 mg/kg IP Q7Dx4
Procedure: (§4) Female NSG mice (5-8 weeks of age, body weight: 20 to 25 g) were obtained from Jackson Laboratories (CA, USA). […] To establish multiple PDXs to allow efficacy studies with multiple drugs, PDXs from passage 2-4 were minced into 1 mm^3 sections and injected subcutaneously into multiple mice. […] G/C combination chemotherapy consisted of the simultaneous administration of both drugs using the schema described above. Tumor growth was assessed by measuring palpable tumors with a caliper and calculating tumor volume. […] DNA was isolated using a modified Wizard procedure (Promega), quantitated by spectrophotometry, and then stored frozen at −20° C. until AMS analysis. […] Primary tumor tissue from four bladder cancer patients were implanted in NSG mice to create the PDX models described in Table 5. […] Of the four distinct tumors tested in the PDX model, three were resistance to cisplatin (BL0269, BL0293, BL0645) and two were resistance to gemcitabine (BL0269, BL0645) as single agent therapies.

PDX Model BL0293 [2] = assay: PDX tumor growth under chemotherapy; type: in vivo, NSG mice; settings: cisplatin 2 mg/kg IV Q7Dx3, gemcitabine 150 mg/kg IP Q7Dx4
Procedure: as §4

PDX Model BL0440 [3] = assay: PDX tumor growth under chemotherapy; type: in vivo, NSG mice; settings: cisplatin 2 mg/kg IV Q7Dx3, gemcitabine 150 mg/kg IP Q7Dx4
Procedure: as §4

PDX Model BL0645 [4] = assay: PDX tumor growth under chemotherapy; type: in vivo, NSG mice; settings: cisplatin 2 mg/kg IV Q7Dx3, gemcitabine 150 mg/kg IP Q7Dx4
Procedure: as §4

[5] = test system: 5637 and 5637R cell lines; assay: gemcitabine incorporation into DNA by AMS; type: cell-based, human
Procedure: The two cell lines were cultured as described above in Example 11. [^14C]Gemcitabine (FIG. 19) was labeled at position 2 (on the aromatic nucleobase) with a specific activity of 58.8 mCi/mmol (purchased from Moravek Biochemical). Unlabeled gemcitabine (USP Pharmaceutical Grade) was mixed with the labeled gemcitabine to achieve the correct specific activity for this experiment. […] This microdose is approximately 0.1% of a therapeutically relevant concentration. Cells were sampled for DNA extraction and AMS analysis of ^14C in DNA over 24 hours.

PDX Model BL0269 [6] = assay: drug-DNA adducts in PDX tumor by AMS; type: in vivo, NSG mice
From the text: (§5) Female NSG mice (5-8 weeks of age, body weight: 20 to 25 g) were obtained from Jackson Laboratories (CA, USA). All animals were kept under pathogen-free conditions and were allowed to acclimatize for at least 4 days prior to any experiments. PDX models bearing the indicated patient derived xenografts were created by subcutaneous injection at the flank of 1 mm^3 tumor tissue. To establish multiple PDXs to allow efficacy studies with multiple drugs, PDXs from passage 2-4 were minced into 1 mm^3 sections and injected subcutaneously into multiple mice. At least 3 mice were used for each treatment group. Tumors were allowed to grow to at about 100 mm^3 before being assessed for drug sensitivity or the induction of DNA adducts by the administration of a microdose or a therapeutic dose of labeled drug. To assess tumor response to chemotherapy, cisplatin was administered at 2 mg/kg IV every 7 days for a total of 3 cycles, or gemcitabine was administered at 150 mg/kg IP every 7 days for a total of 4 cycles. G/C combination chemotherapy consisted of the simultaneous administration of both drugs using the schema described above. Tumor growth was assessed by measuring palpable tumors with a caliper and calculating tumor volume. Drug-DNA adduct frequencies were measured in tumor tissue collected 24 hours after intravenous injection of labeled drug and stored at −80° C. until DNA isolation. DNA was isolated using a modified Wizard procedure (Promega), quantitated by spectrophotometry, and then stored frozen at −20° C. until AMS analysis. Ten micrograms of DNA per sample was converted to graphite and measured by AMS for 14C quantification as previously described.
(§6) NSG mice bearing the indicated PDX tumors were injected with a microdose of ^14C-labeled carboplatin (FIG. 22A) or ^14C-labeled gemcitabine (FIG. 22B). The microdose of ^14C-labeled carboplatin was 0.375 mg/kg carboplatin, 50,000 dpm/g. The microdose of ^14C-labeled gemcitabine was 0.092 mg/kg gemcitabine, 1000 dpm/g. The doses of each drug administered to the mice were chosen to target 1 μM in plasma concentration of carboplatin and 0.3 μM in plasma concentration of gemcitabine. These plasma concentrations represent 1% of the approximate peak plasma concentration during human chemotherapy. Animals were sacrificed after 24 h and drug-DNA adduct frequency was determined from collected tumor tissue by AMS measurements of ^14C in tumor DNA. Carboplatin DNA-adduct levels correlate with PDX model sensitivity to cisplatin at 24 h after microdosing (FIG. 22A). Gemcitabine DNA-adduct levels correlate with PDX model sensitivity to gemcitabine at 24 h after microdosing (FIG. 22B). […] There is no significant difference in carboplatin-DNA monoadduct levels between the three resistant PDX models. […] We conclude that microdose induced carboplatin-DNA monoadducts predicts sensitivity to cisplatin chemotherapy, and microdose induced gemcitabine incorporation predicts sensitivity to gemcitabine chemotherapy.
(§7) In this example we test whether gemcitabine/carboplatin (G/Carbo) combination therapy has an effect on the formation of drug-DNA adducts in this synergistic tumor model. In FIG. 23A, NGS mice bearing BL0645 xenographs were administered via tail vein injection a therapeutic dose of [^14C]carboplatin alone or a therapeutic dose of [^14C]carboplatin in combination with a therapeutic dose of gemcitabine. Carboplatin-DNA monoadducts were measured in tumor tissue 24 h after dosing. A therapeutic dose of the combination [^14C]carboplatin plus unlabeled gemcitabine leads to a significant increase in carboplatin-DNA monoadduct level (94.84±16.02 versus 209.6±64.66 adducts per 10^8 nucleotides, p=0.032) compared to treatment with carboplatin alone. In FIG. 23B, the same experiment was conducted in which the mice received a therapeutic dose of [^14C]gemcitabine alone or a therapeutic dose of [^14C]gemcitabine in combination with a therapeutic dose of unlabeled carboplatin. […]

PDX Model BL0645 [7] = assay: drug-DNA adducts in PDX tumor by AMS; type: in vivo, NSG mice; settings: 24 h
From the text: as §5, §6, §7

PDX Model BL0293 [8] = assay: drug-DNA adducts in PDX tumor by AMS; type: in vivo, NSG mice; settings: microdose 0.092 mg/kg gemcitabine, 24 h
From the text: as §5
(§8) NSG mice bearing the indicated PDX tumors were injected with a microdose of ^14C-labeled carboplatin (FIG. 22A) or ^14C-labeled gemcitabine (FIG. 22B). The microdose of ^14C-labeled carboplatin was 0.375 mg/kg carboplatin, 50,000 dpm/g. The microdose of ^14C-labeled gemcitabine was 0.092 mg/kg gemcitabine, 1000 dpm/g. The doses of each drug administered to the mice were chosen to target 1 μM in plasma concentration of carboplatin and 0.3 μM in plasma concentration of gemcitabine. These plasma concentrations represent 1% of the approximate peak plasma concentration during human chemotherapy. Animals were sacrificed after 24 h and drug-DNA adduct frequency was determined from collected tumor tissue by AMS measurements of ^14C in tumor DNA. Carboplatin DNA-adduct levels correlate with PDX model sensitivity to cisplatin at 24 h after microdosing (FIG. 22A). Gemcitabine DNA-adduct levels correlate with PDX model sensitivity to gemcitabine at 24 h after microdosing (FIG. 22B). […] There is no significant difference in carboplatin-DNA monoadduct levels between the three resistant PDX models. […]

PDX Model BL0440 [9] = assay: drug-DNA adducts in PDX tumor by AMS; type: in vivo, NSG mice; settings: microdose 0.092 mg/kg gemcitabine, 24 h
From the text: as §5, §8

[10] = IV dose of 1000 mg/m^2 over 30 minutes; cited from earlier work

N.N.[Cl][Pt][Cl] [cisplatin]
IC50 (H1975): 14.5 µM | IC50 (H23): 4.23 µM | IC50 (H460): 3.53 µM | IC50 (H727): 20 µM | IC50 (HCC827): 18.2 µM | IC50 (HT1197): 6.2 ± 0.03 µM | IC50 (J82): 12.6 ± 1.17 µM | IC50 (RT4): 8.35 ± 0.01 µM | IC50 (T24): 5.28 ± 0.04 µM | IC50 (TCCSUP): 11.7 ± 1.63 µM | IC50 (5637R): 2990 nM | Xenograph Sensitivity (PDX Model BL0269 [1]): RES | Xenograph Sensitivity (PDX Model BL0293 [2]): RES | Xenograph Sensitivity (PDX Model BL0440 [3]): SEN | Xenograph Sensitivity (PDX Model BL0645 [4]): RES

Nc1ccn([C@@H]2O[C@H](CO)[C@@H](O)C2(F)F)c(=O)n1 [gemcitabine]
gemcitabine incorporation in 5637R compared to parental 5637 cells ([5]; 0.03 μM 4 hours, at 24 hours): much lower gemcitabine incorporation | cytotoxicity of subtherapeutic dose ([5]; 0.03 μM for 4 hours): no cytotoxicity | Xenograph Sensitivity (PDX Model BL0269 [1]): RES | Xenograph Sensitivity (PDX Model BL0293 [2]): SEN | Xenograph Sensitivity (PDX Model BL0440 [3]): SEN | Xenograph Sensitivity (PDX Model BL0645 [4]): RES | gemcitabine-DNA adduct levels (PDX Model BL0269 [6]; control experiment FIG. 23F, microdose single agent or G/Carbo combination): 2.44±0.492 adducts per 10^8 nucleotides | gemcitabine adduct levels (PDX Model BL0269 [6]; microdose 0.092 mg/kg gemcitabine, 24 h (FIG. 22B)): 3.17±0.278 | gemcitabine adducts (PDX Model BL0645 [7]; microdose 0.092 mg/kg gemcitabine alone or with carboplatin 0.375 mg/kg): 2.44±0.880 adducts per 10^8 nucleotides | gemcitabine adduct level (PDX Model BL0645 [7]; therapeutic 9.2 mg/kg gemcitabine alone or with carboplatin 37.5 mg/kg): 169.2±9.129 adducts per 10^8 nucleotides | gemcitabine adduct levels (PDX Model BL0293 [8]): 10.0±5.92 | gemcitabine adduct levels (PDX Model BL0440 [9]): 13.1±10.2 | plasma concentration [10]: about 30 μM | plasma half-life [10]: about 60 minutes
